Laboratory results taken from ChEMBL document CHEMBL5724914, “Linking interpersonal differences in gut microbiota composition and drug biotransformation activity” (2024).

Tests used:
[1] = (§1) The drug is tested on WLS-170 corresponding to human gut metagenome with ENA study accession number: PRJEB37062 and ENA sample accession number: ERS12561762 for biotransformation under anaerobic condition. The drug concentrations were measured over 9 timepoints collected between 0 and 24 hours of incubation by liquid-chromatography-coupled mass spectrometry (LC–MS); details: 2 µM
[2] = as §1, with “Z-018” for “WLS-170”, “pig” for “human”, “ERS12561817” for “ERS12561762”; details: 2 µM
[3] = human gut metagenome, 24 h, 2 µM
[4] = as §1, with “WLS-073” for “WLS-170”, “ERS12561749” for “ERS12561762”; details: 2 µM
[5] = human gut metagenome, 24 h, 2 µM; remark: listed apart in the source
[6] = human gut metagenome, 24 h, 2 µM; remark: listed apart in the source
[7] = as §1, with “WLS-006” for “WLS-170”, “ERS12561741” for “ERS12561762”; details: 2 µM
[8] = as §1, with “WLS-007” for “WLS-170”, “ERS12561742” for “ERS12561762”; details: 2 µM
[9] = human gut metagenome, 24 h, 2 µM; remark: listed apart in the source
[10] = human gut metagenome, 24 h, 2 µM; remark: listed apart in the source
[11] = human gut metagenome, 24 h, 2 µM; remark: listed apart in the source
[12] = human gut metagenome, 24 h, 2 µM; remark: listed apart in the source
[13] = as §1, with “Z-006” for “WLS-170”, “mouse” for “human”, “ERS12561806” for “ERS12561762”; details: 2 µM
[14] = as §1, with “Z-009” for “WLS-170”, “pig” for “human”, “ERS12561809” for “ERS12561762”; details: 2 µM
[15] = as §1, with “Z-008” for “WLS-170”, “to” for “to human gut”, “ERS12561808” for “ERS12561762”; details: 2 µM
[16] = as §1, with “Z-024” for “WLS-170”, “pig” for “human”, “ERS12561823” for “ERS12561762”; details: 2 µM
[17] = human gut metagenome, 24 h, 2 µM; remark: listed apart in the source
[18] = as §1, with “Z-022” for “WLS-170”, “mouse” for “human”, “ERS12561821” for “ERS12561762”; details: 2 µM
[19] = human gut metagenome, 24 h, 2 µM; remark: listed apart in the source
[20] = as §1, with “Z-027” for “WLS-170”, “to” for “to human gut”, “ERS12561826” for “ERS12561762”; details: 2 µM
Further: call rule not given here.

SMILES	Bacterial Biotransformation [1]	Bacterial Biotransformation [2]	Bacterial Biotransformation [3]	Bacterial Biotransformation [4]	Bacterial Biotransformation [5]	Bacterial Biotransformation [6]	Bacterial Biotransformation [7]	Bacterial Biotransformation [8]	Bacterial Biotransformation [9]	Bacterial Biotransformation [10]	Bacterial Biotransformation [11]	Bacterial Biotransformation [12]	Bacterial Biotransformation [13]	Bacterial Biotransformation [14]	Bacterial Biotransformation [15]	Bacterial Biotransformation [16]	Bacterial Biotransformation [17]	Bacterial Biotransformation [18]	Bacterial Biotransformation [19]	Bacterial Biotransformation [20]
CN1CCC(OC(c2ccccc2)c2ccccc2)CC1	Compound metabolized	Compound metabolized	Compound NOT metabolized	Compound NOT metabolized	Compound metabolized	Compound NOT metabolized	Compound NOT metabolized	Compound NOT metabolized	Compound metabolized	Compound metabolized	Compound NOT metabolized	Compound NOT metabolized	Compound NOT metabolized	Compound NOT metabolized	Compound NOT metabolized	Compound metabolized	Compound NOT metabolized	Compound NOT metabolized	Compound NOT metabolized	Compound NOT metabolized
CC1=C(CC(=O)O)c2cc(F)ccc2/C1=C\c1ccc([S+](C)[O-])cc1 (centres undefined)		Compound metabolized	Compound metabolized	Compound metabolized	Compound metabolized	Compound metabolized	Compound metabolized	Compound metabolized	Compound metabolized		Compound metabolized	Compound metabolized	Compound NOT metabolized	Compound NOT metabolized	Compound NOT metabolized	Compound metabolized	Compound metabolized	Compound NOT metabolized	Compound metabolized	Compound NOT metabolized
CCOC(=O)[C@H](CCc1ccccc1)N[C@@H](C)C(=O)N1Cc2ccccc2C[C@H]1C(=O)O	Compound metabolized	Compound NOT metabolized	Compound NOT metabolized	Compound metabolized	Compound NOT metabolized	Compound metabolized	Compound metabolized	Compound metabolized	Compound metabolized	Compound metabolized	Compound NOT metabolized	Compound metabolized	Compound NOT metabolized	Compound NOT metabolized	Compound NOT metabolized	Compound NOT metabolized	Compound NOT metabolized	Compound NOT metabolized	Compound metabolized	Compound NOT metabolized
C#C[C@]1(OC(C)=O)CC[C@H]2[C@@H]3CCC4=C[C@@H](OC(C)=O)CC[C@@H]4[C@H]3CC[C@@]21C [ETHYNODIOL DIACETATE]	Compound metabolized	Compound metabolized	Compound metabolized		Compound metabolized	Compound metabolized	Compound metabolized	Compound metabolized	Compound metabolized	Compound metabolized	Compound metabolized	Compound metabolized	Compound metabolized	Compound metabolized	Compound metabolized	Compound metabolized	Compound metabolized	Compound metabolized	Compound metabolized	Compound metabolized

The next lines start with the values.

Bacterial Biotransformation [1]	Bacterial Biotransformation [2]	Bacterial Biotransformation [3]	Bacterial Biotransformation [4]	Bacterial Biotransformation [5]	Bacterial Biotransformation [6]	Bacterial Biotransformation [7]	Bacterial Biotransformation [8]	Bacterial Biotransformation [9]	Bacterial Biotransformation [10]	Bacterial Biotransformation [11]	Bacterial Biotransformation [12]	Bacterial Biotransformation [13]	Bacterial Biotransformation [14]	Bacterial Biotransformation [15]	Bacterial Biotransformation [16]	Bacterial Biotransformation [17]	Bacterial Biotransformation [18]	Bacterial Biotransformation [19]	Bacterial Biotransformation [20]	SMILES
Compound metabolized	Compound NOT metabolized	Compound NOT metabolized	Compound NOT metabolized	Compound metabolized	Compound metabolized	Compound metabolized	Compound metabolized	Compound metabolized	Compound metabolized	Compound metabolized	Compound NOT metabolized	Compound NOT metabolized	Compound NOT metabolized	Compound NOT metabolized	Compound NOT metabolized	Compound NOT metabolized		Compound metabolized	Compound NOT metabolized	O=C1N=C([O-])NC1(c1ccccc1)c1ccccc1.[Na+] [PHENYTOIN SODIUM]
Compound metabolized	Compound metabolized	Compound metabolized	Compound metabolized	Compound metabolized	Compound metabolized	Compound metabolized	Compound metabolized		Compound metabolized	Compound metabolized	Compound metabolized	Compound metabolized	Compound metabolized	Compound NOT metabolized	Compound metabolized	Compound metabolized	Compound metabolized	Compound metabolized	Compound NOT metabolized	C[C@]12C=CC(=O)C=C1CC[C@@H]1[C@@H]2C(=O)C[C@@]2(C)[C@H]1CC[C@]2(O)C(=O)CO [PREDNISONE]
Compound metabolized	Compound NOT metabolized	Compound metabolized	Compound metabolized		Compound metabolized	Compound metabolized	Compound metabolized	Compound metabolized	Compound metabolized	Compound metabolized	Compound metabolized	Compound metabolized	Compound NOT metabolized	Compound metabolized	Compound metabolized	Compound metabolized	Compound metabolized	Compound metabolized	Compound NOT metabolized	N#Cc1ccc2[nH]cc(CCCCN3CCN(c4ccc5oc(C(N)=O)cc5c4)CC3)c2c1 [VILAZODONE]
